Key:
[1] = system: MOLP-8 human multiple myeloma cell line; experiment: MOLP8 Caspase-Glo 3/7 apoptosis induction assay; type: cell-based; conditions: MOLP-8 cells, 2 hours at 37° C., 30 μM highest conc., averaged over all runs on all batches
Excerpt: MCL-1 is a regulator of apoptosis and is highly over-expressed in tumor cells that escape cell death. The assay evaluates the cellular potency of small-molecule compounds targeting regulators of the apoptosis pathway, primarily MCL-1, Bfl-1, Bcl-2, and other proteins of the Bcl-2 family. Protein-protein inhibitors disrupting the interaction of anti-apoptotic regulators with BH3-domain proteins initiate apoptosis.
The Caspase-Glo® 3/7 Assay is a luminescent assay that measures caspase-3 and -7 activities in purified enzyme preparations or cultures of adherent or suspension cells. The assay provides a proluminescent caspase-3/7 substrate, which contains the tetrapeptide sequence DEVD. This substrate is cleaved to release aminoluciferin, a substrate of luciferase used in the production of light. Addition of the single Caspase-Glo® 3/7 Reagent in an “add-mix-measure” format results in cell lysis, followed by caspase cleavage of the substrate and generation of a “glow-type” luminescent signal.
This assay uses the MOLP-8 human multiple myeloma cell line, which is sensitive to MCL-1 inhibition.
Cell cultures were maintained between 0.2 and 2.0×10^6 cells/mL. The cells were harvested by collection in 50 mL conical tubes. The cells were then pelleted at 500 g for 5 mins before removing supernatant and resuspension in fresh pre-warmed culture medium. The cells were counted and diluted as needed.
The assay reagent was prepared by transferring the buffer solution to the substrate vial and mixing. The solution may be stored for up to 1 week at 4° C. with negligible loss of signal.
Compounds were delivered in assay-ready plates (Proxiplate) and stored at −20° C.
Assays always include 1 reference compound plate containing reference compounds. The plates were spotted with 40 nL of compounds (0.5% DMSO final in cells; serial dilution; 30 μM highest conc. 1/3 dilution, 10 doses, duplicates). The compounds were used at room temperature and 4 μL of pre-warmed media was added to all wells except column 2 and 23. The negative control was prepared by adding 1% DMSO in media. The positive control was prepared by adding the appropriate positive control compound in final concentration of 60 μM in media. The plate was prepared by adding 4 μL negative control to column 23, 4 μL positive control to column 2 and 4 μL cell suspension to all wells in the plate. The plate with cells was then incubated at 37° C. for 2 hours. The assay signal reagent is the Caspase-Glo solution described above, and 8 μL was added to all wells. The plates were then sealed and measured after 30 minutes.
The activity of a test compound was calculated as percent change in apoptosis induction as follows:
[formula] [formula] % Effect (AC50)=100−((sample−LC)/(HC−LC))*100
% Control=(sample/HC)*100
% Control min=(sample−LC)/(HC−LC)*100

[2] = molecular target: Myeloid Cell Leukemia 1 (Mcl-1) (Homo sapiens, UniProt Q07820); experiment: Terbium labeled Mcl-1 HTRF binding assay with Cy5-labeled BIM BH3 peptide; conditions: Ki=IC50/(1+[L]/Kd), [L]=8 nM, Kd=10 nM, 60 min incubation at room temperature, read-out: Tb-MCL1 Ki
Chain of Myeloid Cell Leukemia 1 (Mcl-1) (Q07820 whole entry): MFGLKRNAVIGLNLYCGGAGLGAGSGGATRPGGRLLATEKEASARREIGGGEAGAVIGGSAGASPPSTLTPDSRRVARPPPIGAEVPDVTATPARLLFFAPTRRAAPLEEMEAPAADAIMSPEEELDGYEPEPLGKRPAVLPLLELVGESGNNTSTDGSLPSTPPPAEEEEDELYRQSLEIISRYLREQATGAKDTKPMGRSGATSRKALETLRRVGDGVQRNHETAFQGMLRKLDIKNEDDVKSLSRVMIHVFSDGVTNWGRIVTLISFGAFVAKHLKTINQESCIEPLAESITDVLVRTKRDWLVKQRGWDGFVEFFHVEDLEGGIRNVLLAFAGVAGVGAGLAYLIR
Description: Terbium labeled Myeloid Cell Leukemia 1 (Mcl-1) homogeneous time-resolved fluorescence (HTRF) binding assay utilizing the BIM BH3 peptide (H2N-(C/Cy5Mal) WIAQELRRIGDEFN-OH) as the binding partner for Mcl-1.
This assay evaluated inhibition of the BH3 domain: Mcl-1 interaction by measuring the displacement of Cy5-labeled BIM BH3 peptide (H2N—(C/Cy5Mal) WIAQELRRIGDEFN-OH) in the HTRF assay format.
The following assay and stock buffers were prepared for use in the assay: (a) Stock buffer: 10 mM Tris-HCl, pH=7.5+150 mM NaCl, filtered, sterilized, and stored at 4° C.; and (b) 1×assay buffer, where the following ingredients were added fresh to stock buffer: 2 mM dithiothreitol (DTT), 0.0025% Tween-20, 0.1 mg/mL bovine serum albumin (BSA). The 1×Tb-Mcl-1+Cy5 Bim peptide solution was prepared by diluting the protein stock solution using the 1×assay buffer (b) to 25 pM Tb-Mcl-1 and 8 nM Cy5 Bim peptide.
Using the Acoustic ECHO, 100 nL of 100×test compound(s) were dispensed into individual wells of a white 384-well Perkin Elmer Proxiplate, for a final compound concentration of 1× and final DMSO concentration of 1%. Inhibitor control and neutral control (NC, 100 nL of 100% DMSO) were stamped into columns 23 and 24 of assay plate, respectively. Into each well of the plate was then dispensed 10 μL of the 1×Tb-Mcl-1+Cy5 Bim peptide solution. The plate was centrifuged with a cover plate at 1000 rpm for 1 minute, then incubated for 60 minutes at room temperature with plates covered.
The TR-FRET signal was read on an BMG PHERAStar FSX MicroPlate Reader at room temperature using the HTRF optic module (HTRF: excitation: 337 nm, light source: laser, emission A: 665 nm, emission B: 620 nm, integration start: 60 μs, integration time: 400 μs).
The BMG PHERAStar FSX MicroPlate Reader was used to measure fluorescence intensity at two emission wavelengths—665 nm and 620 nm—and report relative fluorescence units (RFU) for both emissions, as well as a ratio of the emissions (665 nm/620 nm)*10,000. The RFU values were normalized to percent inhibition as follows:
% inhibition=(((NC−IC)−(compound−IC))/(NC−IC))*100
where IC (inhibitor control, low signal)=mean signal of 1×Tb-MCl-1+Cy5 Bim peptide+inhibitor control or 100% inhibition of Mcl-1; NC (neutral control, high signal)=mean signal 1×Tb-MCl-1+Cy5 Bim peptide with DMSO only or 0% inhibition
An 11-point dose response curve was generated to determine IC50 values (using GenData) based on the following equation:
Y=Bottom+(Top−Bottom)/(1+10^((log IC50−X)*HillSlope))
where Y=% inhibition in the presence of X inhibitor concentration; Top=100% inhibition derived from the IC (mean signal of Mcl-1+inhibitor control); Bottom=0% inhibition derived from the NC (mean signal of Mcl-1+DMSO); Hillslope=Hill coefficient; and IC50=concentration of compound with 50% inhibition in relation to top/neutral control (NC).
In this assay [L]=8 nM and Kd=10 nM
Representative compounds of the present invention were tested according to the procedure as described above, with results as listed in the Table below (n.d. means not determined).

Row | SMILES | AC50 [1] [nM] | Ki [2] [nM] | AC50 ([1]; Homo sapiens, MOLP-8, 2 h) [nM]
1 | COCCn1c(C(=O)O)c2c3ccc(Cl)c(c31)-c1c(cnn1C)CSCc1cc(n(C)n1)CCc1cc(c3ccc(F)cc3c1)OCCC2 (single isomer, unassigned) [Compound 24] | 2530 | 2.15 | 
2 | Cn1nc2cc1CCc1cc(c3ccc(F)cc3c1)OCCCc1c(C(=O)O)[nH]c3c(c(Cl)ccc13)-c1c(cnn1C)CSC2 (single isomer, unassigned) [Compound 25] | 4130 | 0.807 | 
3 | Cn1nc2cc1CCc1cc(c3ccc(F)cc3c1)OCCCc1c(C(=O)O)[nH]c3c(c(Cl)ccc13)-c1c(cnn1C)CSC2 (single isomer, unassigned) [Compound 26] | 235 | 0.045 | 
4 | CN(C)CCn1c(C(=O)O)c2c3ccc(Cl)c(c31)-c1c(cnn1C)CSCc1cc(n(C)n1)CCc1cc(c3ccc(F)cc3c1)OCCC2 (single isomer, unassigned) [Compound 27] |  | 0.031 | 117
